Starred links: 1 amine or outer side, 2 acyl side, 3 side chain; linkers in the order of their positions; H or OH if unused. Positions of bridges follow the written chain, without caps; N, C: chain ends. Non-standard residues stand in square brackets, D forms with d. Residues, ends and D or L forms follow the SMILES beside them. *: point of attachment. X1 = NC1=N[C@@H]([C@H](N[*:1])C(=O)[*:2])C[C@H](O)N1; ΔAla(Z-3-ureido) = NC(=O)N/C=C(\N)C(=O)O; β3hOrn = NCCC[C@H](N)CC(=O)*; Dap = NC[C@H](N)C(=O)O
Assays:
[1] = system: self-splicing Pneumocystis carinii Group I intron RNA; assay: Filtration assay for self-splicing Group I intron (96-well, 32P-GTP incorporation, TCA precipitation); assay type: biochemical; settings: single concentration 20 μM; four repeats; FIG. 6
Procedure: A high-throughput screening assay for self-splicing Group I introns using 96-well format filter plates is disclosed. Nonradioactive, intron-containing precursor RNA is incubated with α-^32P-labeled GTP in the absence or presence of small molecules. During the first step of Group I intron splicing, ^32P-GTP is covalently ligated to the 5′ terminus of the intron. Subsequently, the intron-containing products of both the first (439-nt RNA) and the second (390-nt RNA) steps are radioactively labeled at the 5′-end with ^32P isotopes. Free ^32P-GTP and the longer ^32P-labeled (acid-precipitable) RNA products can be readily separated through trichloroacetic acid precipitation and subsequent filtration through nitrocellulose membrane. The efficiency of inhibition can be followed by measuring the amount of the radioactivity retained on the filter membrane. In the control experiment, the spliced products containing 5′-^32P GMP will retain on the membrane. If the first step (5′-cleavage) is inhibited by a small molecule, incorporation of ^32P-GTP to the precursor RNA will be inhibited and, therefore, a decreased amount of radioactivity will be found on the membrane.
In each well of a 96-well U-bottom microtiter plate, 32 μL of precursor RNA (in self-splicing buffer 50 mM Tris-HCl, pH 7.5, 10 mM (NH4)2SO4, 10 mM MgCl2, 5 mM spermidine, and 5% glycerol) was added with 2 μL of a small organic compound in dimethylsulfoxide (DMSO) and the mixture incubated at room temperature for 5 minutes. […] The filter was allowed to dry and the retained radioactivities were determined using scintillation counting (Wallac Microbeta Counter). […]
Column 1 represents the results of eight repeats of the self-splicing reactions in the absence of any inhibitors while Column 12 represents the data of eight repeats of solution containing ^32P-GTP only. […] The results of a total of 18 plates (a total of 1,440 samples) have been analyzed and the statistical distribution of the inhibitory activities is shown in FIG. 4. […]

[2] = system: self-splicing Pneumocystis carinii Group I intron RNA; assay: Multiple-loading gel electrophoresis assay for self-splicing Group I intron; assay type: biochemical; settings: single concentration 20 μM; four repeats; FIG. 6
Procedure: As another example of a separation method useful in the present invention, a high-throughput gel electrophoresis assay with multiple loading capability is used in studies of self-splicing Group I introns. To be specific, the reaction sample, prepared similarly as described in the filtration assay, was loaded on a denaturing polyacrylamide gel (7 M urea, 6% polyacrylamide) and electrophoresed for 1 hour at room temperature. Due to their lengths, the ^32P-labeled products of the self-splicing introns can be readily distinguished from the ^32P-GTP on a polyacrylamide gel. On a single polyacrylamide gel, usually three or four repetitive loadings of different samples into the same wells at discrete times present no interference between samples. […] After a total of 3 hours of electrophoresis, the desired products are well-resolved in all samples regardless of the time of loading.
Each sample contains the same self-splicing reaction solution as described in the previous section (32 μL of precursor RNA in self-splicing buffer, 2 μL of DMSO or compound, and 6 μL solution of α-^32P-GTP). As described previously, the products of the self-splicing reactions are 5′-end labeled intron-containing 439-nt RNA (from the first step) and 390-nt RNA (from the second step). These large RNA fragments can be readily separated from the starting material, ^32P-GTP. After splicing reactions, a total of 20 samples were loaded on a polyacrylamide gel three times (first loading at time 0, then two more loadings at 1, and 2 hours after the first loading, respectively). […] In this gel electrophoresis assay, for the purpose of quantitation of reaction yields, appropriate ^32P-labeled RNA fragments can be introduced to each sample as an internal standard immediately prior to loading. The gels containing self-splicing products and internal standards separated according to their different mobilities can be dried and quantitated by a phosphor imager (Phosphoimager, Molecular Dynamics). […]

Row | Structure (SMILES) | Self-splicing inhibitory effect, filtration assay [1] | Self-splicing inhibitory effect, gel electrophoresis assay [2]
1 | N=C(N)c1ccc(OCCCCCOc2ccc(C(=N)N)cc2)cc1 [pentamidine] | either low or modest activity | either low or modest activity
2 | [H]/N=C(/N)N[C@H]1[C@H](O)[C@@H](O)[C@H](O[C@@H]2O[C@@H](C)[C@](O)(C=O)[C@H]2O[C@@H]2O[C@@H](CO)[C@H](O)[C@@H](O)[C@@H]2NC)[C@@H](N/C(N)=N\[H])[C@@H]1O [streptomycin] | either low or modest activity | either low or modest activity
3 | NCCC[C@H](N)CC(=O)N[C@H]1CNC(=O)[C@H]([C@H]2C[C@H](O)NC(N)=N2)NC(=O)/C(=C/NC(N)=O)NC(=O)[C@H](CO)NC(=O)[C@H](CO)NC1=O [viomycin, Viomycin] (β3hOrn-[Dap]SS[ΔAla(Z-3-ureido)][X1]; lactam 1-C) | either low or modest activity | either low or modest activity

— patent US20030040114A1, “SMALL MOLECULE MODULATION OF RIBOZYMES” (Warner-Lambert Company,, priority 1996, published 2003)
